For 9 compounds, MIC results are on record in patent publication US8486962B2, “Antifungal agents” (F2G Ltd., priority 2005, dated 2013).

SMILES strings stand for the structures. Values after ≈ are worked out from the molar mass of the structure shown.

One assay deals with Aspergillus flavus. Put plainly: MIC, YAG medium, Aspergillus flavus. Conditions: Aspergillus flavus; YAG medium; read-out: MIC A Flavus 01. Type of assay: cell-based. The method in brief: (§1)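 OD at 485 nm versus drug-free control defines MIC (mg/L): >80% inhibition for Candida albicans in RPMI/2% glucose/MOPS pH7.0 after 24-48 hrs at 35° C, >70% for Aspergillus strains in YAG medium after 24 hrs at 35° C. Spore inocula 1-2×10^4 cfu/ml; yeast 1-2×10^3 cfu/ml.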

Assay [1] relates to Aspergillus fumigatus AF293. Put plainly: MIC, YAG medium, Aspergillus fumigatus AF293. Type of assay: cell-based. The settings on record: Aspergillus fumigatus, AF293; YAG medium; read-out: MIC A Fum. 293. In short, it runs like this:
as §1

Assay [2] has as its system Aspergillus fumigatus AF210. Put plainly: MIC, YAG medium, Aspergillus fumigatus AF210. Format: cell-based. The settings on record: Aspergillus fumigatus, AF210; YAG medium; read-out: MIC A Fum. 210. In short, it runs like this: as §1
The next assay concerns Aspergillus terreus. Put plainly: MIC, YAG medium, Aspergillus terreus. The settings on record: Aspergillus terreus; YAG medium; read-out: MIC A Terreus 4. Type of assay: cell-based. In short, it runs like this: as §1
The test system of a further assay is Aspergillus niger. As to the kind of experiment: MIC, YAG medium, Aspergillus niger. The settings on record: Aspergillus niger; YAG medium; read-out: MIC A Niger 1. Format: cell-based. The method in brief: as §1
The test system of the next assay is A Terreus 49. As to the kind of experiment: MIC, YAG medium, A Terreus 49. Format: cell-based, Aspergillus terreus. The settings on record: Aspergillus terreus; YAG medium; read-out: MIC A Terreus 49. Here is the method:
Measurement of Minimum Inhibitory Concentrations (MICs)
Between 1 and 5 mgs of compound were accurately weighed out into a sterile Eppendorf tube. The compound was dissolved in DMSO to give a solution containing 5 mg/ml. Tubes were stored at −20° C. until required.
On the day of testing thawed solutions were vortex mixed to ensure homogeneity. 30 μl of solution was removed and added to 570 μl of sterile water in a separate sterile Eppendorf. The thoroughly mixed solution was used to prepare a series of doubling dilutions in water, in a deep well plate. Eleven replicate plates were prepared using a Minitrak by aspirating 20 μl from each well into eleven clear polystyrene 96 well plates.
Spores of Aspergillus spp (Aspergillus fumigatus, Aspergillus terreus, Aspergillus niger and Aspergillus flavus) were harvested from cultures grown on Sabarauds agar for 5 days, and resuspended in PBS/Tween 80 to approx 1×10^7 cfu/ml Other filamentous fungi (Fusarium solani, Scedosporium spp., Trichophyton spp., Absidia corymbifera), were grown on Sabarauds agar for 2-10 days and spores/hyphae resuspended in PBS/Tween to give approx 1×10^7 cfU/ml. Candida species (Candida albicans, Candida glabrata, Candida krusei, Candida parapsilosis and Candida tropicalis) were grown on Sabarauds agar, cells were harvested from the agar using a sterile loop and resuspended in PBS/Tween 80 to approx 1×10^6 cfu/ml. Each organism suspension was diluted in RPMI medium, containing 2% glucose and 0.135M MOPS buffer (pH7.0) to 2×10^4 cfu/ml for Aspergillus spp and other filamentous fungi and 2×10^3 cfu/ml for yeast. 80 μl of an organism suspension was added to each well of the plate containing drug dilutions.
This produced MIC plates with a drug range 50-0.05 mg/L and organism inocula of 1-2×10^4 cfu/ml for Aspergillus spp and other filamentous fungi and 1-2×10^3 cfu/ml for yeasts. All plates were incubated for 24-48 hrs at 35° C. Growth was assessed by monitoring the optical density at 485 nm for each well. The MIC of a compound is the lowest drug concentration that inhibits growth of an organism by >80% compared with a drug free control. MICs are recorded as mg/L. Other growth media can be used for susceptibility testing, and the activity of the described compounds can also be assessed in a medium comprising, 1% glucose, 1% ammonium chloride and 0.5% yeast extract (YAG medium). To perform MIC tests in this medium, dilutions of compounds are prepared in microtitre plates as described above. Fungal strains to be tested are grown and harvested in an identical manner to that described above, each organism suspension is then diluted in YAG medium to 2×10^4 cfu/ml for Aspergillus spp and other filamentous fungi and 2×10^3 cfu/ml for yeast. 80 μl of an organism suspension was added to each well of the plate containing drug dilutions. This produced MIC plates with a drug range 50-0.05 mg/L and organism inocula of 1-2×10^4 cfu/ml for Aspergillus spp and other filamentous fungi and 1-2×10^3 cfu/ml for yeasts. All plates were incubated for 24 hrs at 35° C. Growth was assessed by monitoring the optical density at 485 nm for each well. The MIC of a compound is the lowest drug concentration that inhibits growth of an organism by >70% compared with a drug free control. MICs are recorded as mg/L. In cases where the MIC of an organism is […]0.05 mg/L the MIC is repeated using a concentration range of 0.5-0.0005 mg/L. MIC tests in YAG medium have more clear-cut endpoints and have slightly lower MICS than those performed in RPMI medium.
The following organisms were tested: Aspergillus fumigatus AF293 and Aspergillus fumigatus AF210, Aspergillus niger, Aspergillus terreus, Aspergillus favus, Candida albicans, Candida krusei, Candida tropicalis, Candida glabrata, Candida parapsilosis, Trichophyton rubrum, Trichophyton mentagrophytes, Scedosporium prolificans, Scedosporium apiospermum, Absidia corymbifera, Fusarium solani.

As to `Cc1ccccc1NC(=O)C(=O)c1c(-c2ccccc2)cc2ccccn12` [Example 202, 2-Oxo-2-(2-phenyl-indolizin-3-yl)-N-o-tolyl-acetamide], the minimal inhibitory concentration (MIC) came out at 0.062 µg/mL (≈ 0.175 µM) in the assay with Aspergillus flavus; 0.5 µg/mL (≈ 1.41 µM) in assay [1]; 0.25 µg/mL (≈ 0.705 µM) in assay [2]; 0.008 µg/mL (≈ 0.0226 µM) in the assay on Aspergillus terreus; 0.031 µg/mL (≈ 0.0875 µM) with Aspergillus niger; 0.015 µg/mL (≈ 0.0423 µM) in the assay on A Terreus 49.

On to `CN(C)c1ccc(NC(=O)C(=O)c2c(-c3ccccc3)cc3ccccn23)cc1` [Example 203, N-(4-Dimethylamino-phenyl)-2-oxo-2-(2-phenyl-indolizin-3-yl)-acetamide], for which the MIC with Aspergillus flavus came to 0.008 µg/mL (≈ 0.0209 µM); in assay [1], 0.06 µg/mL (≈ 0.156 µM); in assay [2], 0.062 µg/mL (≈ 0.162 µM); with Aspergillus terreus, 0.015 µg/mL (≈ 0.0391 µM); in the assay on Aspergillus niger, 0.031 µg/mL (≈ 0.0808 µM); in the assay with A Terreus 49, 0.008 µg/mL (≈ 0.0209 µM).

For `O=C(Nc1ccc(Br)cc1)C(=O)c1c(-c2ccccc2)cc2ccccn12` [Example 204, N-(4-Bromo-phenyl)-2-oxo-2-(2-phenyl-indolizin-3-yl)-acetamide], the MIC in the assay with Aspergillus flavus came out at 0.031 µg/mL (≈ 0.0739 µM); in assay [1], 0.25 µg/mL (≈ 0.596 µM); in assay [2], 0.25 µg/mL (≈ 0.596 µM); in the assay on Aspergillus terreus, 0.015 µg/mL (≈ 0.0358 µM); with Aspergillus niger, 0.031 µg/mL (≈ 0.0739 µM); in the assay on A Terreus 49 it was 0.015 µg/mL (≈ 0.0358 µM).

Regarding `CC(=O)c1ccc(NC(=O)C(=O)c2c(-c3ccccc3)cc3ccccn23)cc1` [Example 205, N-(4-Acetyl-phenyl)-2-oxo-2-(2-phenyl-indolizin-3-yl)-acetamide], the MIC with Aspergillus flavus came out at 0.062 µg/mL (≈ 0.162 µM); in assay [1] it was 0.5 µg/mL (≈ 1.31 µM); in assay [2] it was 0.5 µg/mL (≈ 1.31 µM); with Aspergillus terreus, 0.031 µg/mL (≈ 0.0811 µM); in the assay on Aspergillus niger it was 0.062 µg/mL (≈ 0.162 µM); in the assay with A Terreus 49 it was 0.062 µg/mL (≈ 0.162 µM).

With `Cc1cccc(NC(=O)C(=O)c2c(-c3ccccc3)cc3ccccn23)c1` [Example 206, 2-Oxo-2-(2-phenyl-indolizin-3-yl)-N-m-tolyl-acetamide], the MIC in the assay with Aspergillus flavus was 0.008 µg/mL (≈ 0.0226 µM); in assay [1] it was 0.062 µg/mL (≈ 0.175 µM); in assay [2], 0.062 µg/mL (≈ 0.175 µM); with Aspergillus terreus, 0.004 µg/mL (≈ 0.0113 µM); in the assay with Aspergillus niger, 0.015 µg/mL (≈ 0.0423 µM); with A Terreus 49, 0.008 µg/mL (≈ 0.0226 µM).

On to `O=C(Nc1cc(Cl)cc(Cl)c1)C(=O)c1c(-c2ccccc2)cc2ccccn12` [Example 220, N-(3,5-Dichloro-phenyl)-2-oxo-2-(2-phenyl-indolizin-3-yl)-acetamide], for which the MIC in the assay on Aspergillus flavus is 0.015 µg/mL (≈ 0.0367 µM); in assay [1], 0.12 µg/mL (≈ 0.293 µM); in assay [2], 0.12 µg/mL (≈ 0.293 µM); in the assay on Aspergillus terreus it was 0.031 µg/mL (≈ 0.0757 µM); in the assay with Aspergillus niger, 0.062 µg/mL (≈ 0.151 µM); in the assay on A Terreus 49, 0.008 µg/mL (≈ 0.0195 µM).

In the case of `CC(C)(C#N)c1ccc(NC(=O)C(=O)c2c(-c3ccccc3)cc3ccccn23)cc1` [Example 221, N-[4-(Cyano-dimethyl-methyl)-phenyl]-2-oxo-2-(2-phenyl-indolizin-3-yl)-acetamide], the MIC in the assay with Aspergillus flavus was 0.015 µg/mL (≈ 0.0368 µM); in assay [1], 0.062 µg/mL (≈ 0.152 µM); in assay [2], 0.03 µg/mL (≈ 0.0736 µM); in the assay on Aspergillus terreus it was 0.015 µg/mL (≈ 0.0368 µM); with Aspergillus niger it was 0.015 µg/mL (≈ 0.0368 µM); in the assay on A Terreus 49, 0.008 µg/mL (≈ 0.0196 µM).

On to `CC(C)(C#N)c1cccc(NC(=O)C(=O)c2c(-c3ccccc3)cc3ccccn23)c1` [Example 228, N-[3-(Cyano-dimethyl-methyl)-phenyl]-2-oxo-2-(2-phenyl-indolizin-3-yl)-acetamide], for which the MIC stood at 0.004 µg/mL (≈ 0.00982 µM) in the assay with Aspergillus flavus; 0.031 µg/mL (≈ 0.0761 µM) in assay [1]; 0.031 µg/mL (≈ 0.0761 µM) in assay [2]; 0.004 µg/mL (≈ 0.00982 µM) in the assay with Aspergillus terreus; 0.015 µg/mL (≈ 0.0368 µM) with Aspergillus niger; 0.002 µg/mL (≈ 0.00491 µM) in the assay with A Terreus 49.

`CN(C)c1ccc(NC(=O)C(=O)c2c(-c3ccccc3)cc3ccccn23)cn1` [Example 229, N-(6-Dimethylamino-pyridin-3-yl)-2-oxo-2-(2-phenyl-indolizin-3-yl)-acetamide]: the MIC with Aspergillus flavus was 0.031 µg/mL (≈ 0.0806 µM); in assay [1] it was 0.5 µg/mL (≈ 1.3 µM); in assay [2], 0.5 µg/mL (≈ 1.3 µM); in the assay with Aspergillus terreus, 0.12 µg/mL (≈ 0.312 µM); with Aspergillus niger it was 0.12 µg/mL (≈ 0.312 µM); in the assay on A Terreus 49, 0.062 µg/mL (≈ 0.161 µM).
